Columns and labels:
Test in all cases: relative viability (nuclei count vs DMSO), 5 days (fraction); higher = more cells survive
LCLC-97TM1 = test system: LCLC-97TM1
How it was run: (§1)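 Five library-drug doses in √10 steps were combined with a fixed anchor-drug dose, or a single drug was given alone, by pin tool to lung cancer cell lines in 1536-well plates the day after seeding. Nuclei were stained and counted after 5 days. Relative viability is the nuclei count in treated wells over that in vehicle wells, taken as the median of duplicate plates.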

NCI-H1915 = test system: NCI-H1915
How it was run: as §1

NCI-H1993 = test system: NCI-H1993
How it was run: as §1

PC-3 [JPC-3] = test system: PC-3 [JPC-3]
How it was run: as §1

NCI-H441 = test system: NCI-H441
How it was run: as §1

NCI-H1437 = test system: NCI-H1437
How it was run: as §1

CAL-12T = test system: CAL-12T
How it was run: as §1

A-427 = test system: A-427
How it was run: as §1

NCI-H2347 = test system: NCI-H2347
How it was run: as §1

NCI-H838 = test system: NCI-H838
How it was run: as §1

NCI-H522 = test system: NCI-H522
How it was run: as §1

NCI-H2342 = test system: NCI-H2342
How it was run: as §1

LXF-289 = test system: LXF-289
How it was run: as §1

ABC-1 = test system: ABC-1
How it was run: as §1

HOP-62 = test system: HOP-62
How it was run: as §1

NCI-H460 = test system: NCI-H460
How it was run: as §1

NCI-H1651 = test system: NCI-H1651
How it was run: as §1

In the case of `C=C1C(=O)O[C@@H](CCCCCCCC)[C@@H]1C(=O)O` [C-75] + NC(=O)Nc1cc(-c2cccc(F)c2)sc1C(=O)N[C@H]1CCCNC1 [AZD7762] (partner 0.2 µM), the relative viability (LCLC-97TM1; first compound 0.08 µM) is reported as 0.248, the relative viability (LCLC-97TM1; first compound 0.253 µM) is reported as 0.581 and the relative viability (LCLC-97TM1; first compound 0.8 µM) is reported as 0.218. It also gave a relative viability (LCLC-97TM1; first compound 2.53 µM) of 0.254, a relative viability (LCLC-97TM1; first compound 8 µM) of 0.833 and a relative viability (NCI-H1915; first compound 0.08 µM) of 0.716. For the same molecule, the relative viability (NCI-H1915; first compound 0.253 µM) was 0.683, the relative viability (NCI-H1915; first compound 0.8 µM) was 0.739 and the relative viability (NCI-H1915; first compound 2.53 µM) was 0.621. For the same molecule, the relative viability (NCI-H1915; first compound 8 µM) was 0.79, the relative viability (NCI-H1993; first compound 0.08 µM) was 0.959 and the relative viability (NCI-H1993; first compound 0.253 µM) was 0.998. It also gave a relative viability (NCI-H1993; first compound 0.8 µM) of 0.772, a relative viability (NCI-H1993; first compound 2.53 µM) of 0.687 and a relative viability (NCI-H1993; first compound 8 µM) of 0.685. The relative viability (PC-3 [JPC-3]; first compound 0.08 µM) was 0.845, the relative viability (PC-3 [JPC-3]; first compound 0.253 µM) was 0.801 and the relative viability (PC-3 [JPC-3]; first compound 0.8 µM) was 0.801. It also gave a relative viability (PC-3 [JPC-3]; first compound 2.53 µM) of 0.6, a relative viability (PC-3 [JPC-3]; first compound 8 µM) of 0.753 and a relative viability (NCI-H441; first compound 0.08 µM) of 1.26. It also gave a relative viability (NCI-H441; first compound 0.253 µM) of 1.3, a relative viability (NCI-H441; first compound 0.8 µM) of 1.05 and a relative viability (NCI-H441; first compound 8 µM) of 1.06. It also gave a relative viability (NCI-H1437; first compound 0.08 µM) of 1.11, a relative viability (NCI-H1437; first compound 0.253 µM) of 1.09 and a relative viability (NCI-H1437; first compound 0.8 µM) of 1.09. The relative viability (NCI-H1437; first compound 2.53 µM) was 1.09, the relative viability (NCI-H1437; first compound 8 µM) was 1.15 and the relative viability (CAL-12T; first compound 0.08 µM) was 0.683. It also gave a relative viability (CAL-12T; first compound 0.253 µM) of 0.713, a relative viability (CAL-12T; first compound 0.8 µM) of 0.586 and a relative viability (CAL-12T; first compound 2.53 µM) of 0.548. For the same molecule, the relative viability (CAL-12T; first compound 8 µM) was 0.64, the relative viability (A-427; first compound 0.08 µM) was 0.698 and the relative viability (A-427; first compound 0.253 µM) was 0.825. For the same molecule, the relative viability (A-427; first compound 0.8 µM) was 0.537, the relative viability (A-427; first compound 2.53 µM) was 0.72 and the relative viability (A-427; first compound 8 µM) was 0.536. The relative viability (NCI-H2347; first compound 0.08 µM) was 0.725, the relative viability (NCI-H2347; first compound 0.253 µM) was 1 and the relative viability (NCI-H2347; first compound 0.8 µM) was 0.715. For the same molecule, the relative viability (NCI-H2347; first compound 2.53 µM) was 0.705, the relative viability (NCI-H2347; first compound 8 µM) was 0.665 and the relative viability (NCI-H838; first compound 0.08 µM) was 0.89. It also gave a relative viability (NCI-H838; first compound 0.253 µM) of 0.752, a relative viability (NCI-H838; first compound 0.8 µM) of 0.943 and a relative viability (NCI-H838; first compound 2.53 µM) of 0.865. For the same molecule, the relative viability (NCI-H838; first compound 8 µM) was 0.891, the relative viability (NCI-H522; first compound 0.08 µM) was 0.851 and the relative viability (NCI-H522; first compound 0.253 µM) was 0.717. For the same molecule, the relative viability (NCI-H522; first compound 0.8 µM) was 0.846, the relative viability (NCI-H522; first compound 2.53 µM) was 0.855 and the relative viability (NCI-H522; first compound 8 µM) was 0.727. It also gave a relative viability (NCI-H2342; first compound 0.08 µM) of 0.569, a relative viability (NCI-H2342; first compound 0.253 µM) of 0.562 and a relative viability (NCI-H2342; first compound 0.8 µM) of 0.45. The relative viability (NCI-H2342; first compound 2.53 µM) was 0.458, the relative viability (NCI-H2342; first compound 8 µM) was 0.505 and the relative viability (LXF-289; first compound 0.08 µM) was 1.07. For the same molecule, the relative viability (LXF-289; first compound 0.253 µM) was 1.21, the relative viability (LXF-289; first compound 0.8 µM) was 1.02 and the relative viability (LXF-289; first compound 2.53 µM) was 1.07. The relative viability (LXF-289; first compound 8 µM) was 1.21, the relative viability (ABC-1; first compound 0.08 µM) was 0.736 and the relative viability (ABC-1; first compound 0.253 µM) was 0.461. For the same molecule, the relative viability (ABC-1; first compound 0.8 µM) was 0.685, the relative viability (ABC-1; first compound 2.53 µM) was 0.672 and the relative viability (ABC-1; first compound 8 µM) was 0.775. For the same molecule, the relative viability (HOP-62; first compound 0.08 µM) was 0.592, the relative viability (HOP-62; first compound 0.253 µM) was 1.09 and the relative viability (HOP-62; first compound 0.8 µM) was 0.522. The relative viability (HOP-62; first compound 2.53 µM) was 0.657, the relative viability (HOP-62; first compound 8 µM) was 0.91 and the relative viability (NCI-H460; first compound 0.08 µM) was 0.685. The relative viability (NCI-H460; first compound 0.253 µM) was 0.805, the relative viability (NCI-H460; first compound 0.8 µM) was 0.595 and the relative viability (NCI-H460; first compound 2.53 µM) was 0.555. For the same molecule, the relative viability (NCI-H460; first compound 8 µM) was 0.706, the relative viability (NCI-H1651; first compound 0.08 µM) was 0.431 and the relative viability (NCI-H1651; first compound 0.253 µM) was 0.511. For the same molecule, the relative viability (NCI-H1651; first compound 0.8 µM) was 0.358, the relative viability (NCI-H1651; first compound 2.53 µM) was 0.374 and the relative viability (NCI-H1651; first compound 8 µM) was 0.509.
Work on `Oc1nc(-c2ccc(C(F)(F)F)cc2)nc2c1CSCC2` [XAV939] + NC(=O)Nc1cc(-c2cccc(F)c2)sc1C(=O)N[C@H]1CCCNC1 [AZD7762] (partner 0.2 µM) yielded a relative viability (LCLC-97TM1; first compound 0.08 µM) of 0.446, a relative viability (LCLC-97TM1; first compound 0.8 µM) of 0.208 and a relative viability (LCLC-97TM1; first compound 2.53 µM) of 0.172. It also gave a relative viability (NCI-H1915; first compound 0.08 µM) of 0.898, a relative viability (NCI-H1915; first compound 0.253 µM) of 0.674 and a relative viability (NCI-H1915; first compound 0.8 µM) of 0.693. It also gave a relative viability (NCI-H1915; first compound 2.53 µM) of 0.665, a relative viability (NCI-H1993; first compound 0.08 µM) of 0.923 and a relative viability (NCI-H1993; first compound 0.253 µM) of 0.569. It also gave a relative viability (NCI-H1993; first compound 0.8 µM) of 0.62, a relative viability (NCI-H1993; first compound 2.53 µM) of 0.653 and a relative viability (PC-3 [JPC-3]; first compound 0.253 µM) of 0.691. For the same molecule, the relative viability (PC-3 [JPC-3]; first compound 0.8 µM) was 0.753, the relative viability (PC-3 [JPC-3]; first compound 2.53 µM) was 0.801 and the relative viability (NCI-H441; first compound 0.08 µM) was 1.08. The relative viability (NCI-H441; first compound 0.253 µM) was 0.947, the relative viability (NCI-H441; first compound 0.8 µM) was 1.27 and the relative viability (NCI-H441; first compound 2.53 µM) was 1.27. It also gave a relative viability (NCI-H1437; first compound 0.08 µM) of 1.17, a relative viability (NCI-H1437; first compound 0.253 µM) of 1.07 and a relative viability (NCI-H1437; first compound 0.8 µM) of 1.1. The relative viability (NCI-H1437; first compound 2.53 µM) was 1.02, the relative viability (CAL-12T; first compound 0.08 µM) was 0.654 and the relative viability (CAL-12T; first compound 0.253 µM) was 0.595. For the same molecule, the relative viability (CAL-12T; first compound 0.8 µM) was 0.609, the relative viability (CAL-12T; first compound 2.53 µM) was 0.507 and the relative viability (A-427; first compound 0.08 µM) was 0.816. For the same molecule, the relative viability (A-427; first compound 0.253 µM) was 0.684, the relative viability (A-427; first compound 0.8 µM) was 0.706 and the relative viability (A-427; first compound 2.53 µM) was 0.696. It also gave a relative viability (NCI-H2347; first compound 0.08 µM) of 0.803, a relative viability (NCI-H2347; first compound 0.253 µM) of 0.612 and a relative viability (NCI-H2347; first compound 0.8 µM) of 0.796. For the same molecule, the relative viability (NCI-H2347; first compound 2.53 µM) was 0.58, the relative viability (NCI-H838; first compound 0.08 µM) was 0.93 and the relative viability (NCI-H838; first compound 0.253 µM) was 0.842. The relative viability (NCI-H838; first compound 0.8 µM) was 0.923, the relative viability (NCI-H838; first compound 2.53 µM) was 0.799 and the relative viability (NCI-H522; first compound 0.08 µM) was 0.914. For the same molecule, the relative viability (NCI-H522; first compound 0.253 µM) was 0.797, the relative viability (NCI-H522; first compound 0.8 µM) was 0.825 and the relative viability (NCI-H522; first compound 2.53 µM) was 0.819. For the same molecule, the relative viability (NCI-H2342; first compound 0.08 µM) was 0.425, the relative viability (NCI-H2342; first compound 0.253 µM) was 0.443 and the relative viability (NCI-H2342; first compound 0.8 µM) was 0.401. For the same molecule, the relative viability (NCI-H2342; first compound 2.53 µM) was 0.345, the relative viability (LXF-289; first compound 0.08 µM) was 1.16 and the relative viability (LXF-289; first compound 0.253 µM) was 1.04. The relative viability (LXF-289; first compound 0.8 µM) was 1.1, the relative viability (LXF-289; first compound 2.53 µM) was 1.21 and the relative viability (ABC-1; first compound 0.253 µM) was 0.537. It also gave a relative viability (ABC-1; first compound 0.8 µM) of 0.768, a relative viability (ABC-1; first compound 2.53 µM) of 0.676 and a relative viability (HOP-62; first compound 0.08 µM) of 0.827. For the same molecule, the relative viability (HOP-62; first compound 0.253 µM) was 0.503, the relative viability (HOP-62; first compound 0.8 µM) was 0.613 and the relative viability (HOP-62; first compound 2.53 µM) was 0.323. It also gave a relative viability (NCI-H460; first compound 0.08 µM) of 0.765, a relative viability (NCI-H460; first compound 0.253 µM) of 0.631 and a relative viability (NCI-H460; first compound 0.8 µM) of 0.636. It also gave a relative viability (NCI-H460; first compound 2.53 µM) of 0.551, a relative viability (NCI-H1651; first compound 0.08 µM) of 0.518 and a relative viability (NCI-H1651; first compound 0.253 µM) of 0.429. The relative viability (NCI-H1651; first compound 0.8 µM) was 0.383 and the relative viability (NCI-H1651; first compound 2.53 µM) was 0.389.

Reference: the supplement of paper PMC10307832
